Source: patent US11466054B2, “Inhibitors of metastasis” (BIOMARCK PHARMACEUTICALS LTD., priority 2013, dated 2022)
Where no end group is shown, it is not given here. The star is where a group is joined. Myristoyl = CCCCCCCCCCCCCC(=O)*

How the values were obtained:
CL1-5 cells = test: Transwell migration assay, CL1-5 cells pretreated with peptide; type: cell-based, human; details: 12 hours; for cell number: control approximately 105;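 for migration index: index equals control cell count divided by treated cell count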
Experimental: CL1-5 cells, an aggressively metastatic cell line derived from a human adenocarcinoma, were cultured in RPMI 1640 media with 10% FBS, 37° C. at 95% […]/5% CO2 until ready for use. Transwell plates (24-well, 8-um pore size; Costar, Cambridge, Mass., USA) were used to conduct the migration assay. The lower chambers of the Transwell plates were filled with 600 μl of basal media containing 10% FBS. The cells (1×10^5) were pretreated with 50 or 100 μM of the indicated test peptide for 30 min, and then suspended in 100 μl of basal media containing 1% BSA and added to the upper chamber, and the cells then were incubated at 37° C. for 12 hr. The cells on the upper surface of the filters were removed using cotton swabs, and the cells that migrated to the lower surface of the filters were washed, fixed, and stained with hematoxylin and counted under the microscope. The percent change in migration was determined by counting the number of cells that migrated to the lower surface of the filters. At least 3 separate microscopic fields were counted per membrane (n=4).
Primary CL1-5 cells originated from human adenocarcinoma lung cancer Transwell plates with 24-wells, 8-μ pore size (Costar, Cambridge, Mass., USA) were used to conduct the migration assay. The lower chambers of the transwell plates were filled with 600 μL of basal media containing 10% FBS. The cells (1-2×10^5) were suspended in 100 μL of basal media containing 1% BSA. The test peptide at desired concentration was added to the upper chamber directly or after preincubation with cancer cells. The plates were then incubated at 37° C. for 12 hours. The cells on the upper surface of the filters were removed using cotton swabs. The cells that migrated to the lower surface of the filters were washed, fixed, and stained with hematoxylin and counted under the microscope. At least five separate microscopic fields are counted per membrane (n=3). The percent change in migration was determined by counting the number of cells that migrated to the lower surface of the filters.
The count means the actual number of cells which migrated to the lower chamber and counted by a light microscope at 40× magnification, presented as the mean number of cells in 10 randomly chosen fields for each treatment.
The “index” was calculated by dividing the number of cells that migrated in the presence of peptides by the number of cells that migrated randomly (control group). […]. This calculation can reflect the extent that the migration of cells was blocked by 30 minute pretreatment with MANS-related peptides.

PC-9 cells = test: Orthotopic lung injection xenograph model, PC-9 cells in nude mice; type: in vivo; details: 50 nmoles i.p. once every three days, 25 days; for No. of Metastatic Lung Tumors Mean ± SE (L't): left lung; for No. of Metastatic Lung Tumors Mean ± SE (R't): right lung; for Tumor Size (mm) Mean ± SE: tumor at site of injection, cells pretreated 100 μM 4 hours
Experimental: The metastatic activity of cancer cells in vivo after treatment with MANS peptide or BIO-11006 was assessed in the orthotopic lung injection xenograph model. After pretreatment with either PBS, or PBS+MANS, BIO-11006 (SEQ ID NO: 106), or the control RNS peptide at 100 μM for 4 hours, PC-9 cells were injected into the left lobe of the lung of nude mice. Seven days later, these mice were given systemic treatment with either PBS only (Con), RNS (additional control peptide), MANS or BIO-11006 at 50 nmoles per intraperitoneal injection once every three days. At 25 days (6 injections) post-seeding of these tumor cells, mice were sacrificed and the number of metastasized tumor nodules in the contralateral lung and other organs was counted.

A549 = test: Transwell migration assay, A549 cells; type: cell-based, human; details: 12 hr; for migration index numbers relative to control and to RNS peptide / migrated cell numbers relative to control and to RNS peptide: A549, 50 μm; for migrated cell numbers relative to control and to RNS peptide / cell numbers in comparison to control, RNS peptide and MANS peptide: FIG. 11; for cell numbers in comparison to control, RNS peptide and MANS peptide: A549, 25 μm
Experimental: The human adenocarcinoma-derived alveolar epithelial cell line A549 (an invasive cell line) was obtained from the American Type Culture Collection (ATCC) and was cultured in RPMI-1640 supplemented with 10% fetal bovine serum and 100 U/ml penicillin/streptomycin, in 75 cm^2 tissue culture flasks. The cells reached confluence by the third day of culture at 37° C. in an atmosphere of 95% air and 5% CO2 and were maintained by serial passage.
The test peptides (MANS, RNS, BIO-11006, BIO-11000, BIO-11002, BIO-91200, and BIO-10901) were dissolved in PBS at a pH of 7.0; slow vortex mixing for about two hours aided solubility.
Transwell plates (24-well, […]; Costar, Cambridge, Mass., USA) were used to conduct the migration assay. The lower chambers of the transwell plates were filled with 600 μl of basal medium containing 10% FBS. The cells (1×10^5) were suspended in 100 μl of basal medium containing 1% BSA and added to the upper chamber, and the plates incubated at 37° C. with 5% CO2 for 12 hr in PBS (control), or the indicated test peptides at 10, 25 or 50 μM. The cells on the upper surface of the filters were removed using cotton swabs. The cells that migrated to the lower surface of the filters were washed, fixed, and stained with hematoxylin and counted under the microscope. The percent change in migration is determined by counting the number of cells that migrated to the lower surface of the filters. At least four separate microscopic fields are counted per membrane, with a total of three replicate experiments at each concentration. The statistics software “Prizm” was used for data analysis.

A549 cells = test: Anti-metastatic efficacy in SCID mice given A549 cells via the tail vein; type: in vivo; details: Day 53; for No. of metastatic nodules in lungs Mean ± SEM: aerosol 100 μM every other day for 7 weeks
Experimental: Female NOD.CB17-Prkdc^scid/NCrHsd, Mus musculus mice (Harlan, The Netherlands), housed in individually ventilated cages, were randomized into six groups of eight mice each. A549 cells (2.5×10^6) were injected into the mice via the tail vein. The control group received aerosolized vehicle PBS; while the groups 2 and 3 received the aerosolized test compound BIO-11006 either from −1 day before the cancer cells injection (group 2) or from +3 days after the cancer cell injection (group 3) on every other day for 7 weeks via nebulizer (Aeroneb Lab). Groups 4 and 5 received the aerosolized test compound MANS peptide either from −1 day before the cancer cell line injection (group 4) or from +3 days after the cell line injection (group 5) on every other day for 7 weeks via a nebulizer (Aeroneb Lab). For aerosol delivery, solution of each test compound (100 μM) was prepared in PBS, pH 7.0. For each treatment, 5 mL of test compound solution was aerosolized over 30 minutes into a chamber containing four mice at a time. The mice were monitored for body weight every other day for 7 weeks.
One group of mice (n=7) served as normal control. These were untreated naïve mice used to monitor the health status of mice during the study period. All animals from all groups were sacrificed on Day 53. FIG. 15 compares number of metastatic nodules in lungs after respective administration of BIO-11006 and MANS peptide on Day 53 following A549 cell injection. […] There were few focal tumor nodules in ⅞ of mice treated with BIO-11006 peptide starting at either Day −1 or Day +3 relative to A549 cell injection.

[1] = CL1-5, 50 μmolar pretreatment, FIG. 9
[2] = CL1-5, 50 μmolar pretreatment, FIG. 9, control=1.0
[3] = CL1-5, 50 μmolar, FIG. 8A, control=1, higher value signifies less migration
[4] = CL1-5, 100 μmolar pretreatment, FIG. 10
[5] = CL1-5, 100 μmolar pretreatment, FIG. 10, control=1.0
[6] = CL1-5, 100 μmolar, FIG. 8B, control=1, higher value signifies less migration
[7] = CL1-5, pretreatment at 50 μmolar, FIG. 7A
[8] = CL1-5, pretreatment at 100 μmolar, FIG. 7B

Substance	cell number (CL1-5 cells; [1])	migration index (CL1-5 cells; [2])	migration index (CL1-5 cells; [3])	cell number (CL1-5 cells; [4])	migration index (CL1-5 cells; [5])	migration index (CL1-5 cells; [6])	migrated cell numbers (CL1-5 cells; [7])	migrated cell numbers (CL1-5 cells; [8])	Metastases (affected mice/total mice) Diaphragm (PC-9 cells)	Metastases (affected mice/total mice) Heart (PC-9 cells)	Metastases (affected mice/total mice) Intestines (PC-9 cells)	Metastases (affected mice/total mice) Spleen (PC-9 cells)	No. of Metastatic Lung Tumors Mean ± SE (L't) (PC-9 cells)	No. of Metastatic Lung Tumors Mean ± SE (R't) (PC-9 cells)	Tumor Size (mm) Mean ± SE (PC-9 cells)	migration index numbers relative to control and to RNS peptide (A549)	migrated cell numbers relative to control and to RNS peptide (A549)	cell numbers in comparison to control, RNS peptide and MANS peptide (A549)	also measured
GTAPAAEGAGAEVKRASAEAKQAF (Myristoyl-GTAPAAEGAGAEVKRASAEAKQAF) [RNS peptide, reference compound]	approximately 90	approximately 1.3	approximately 1.1	approximately 95	approximately 1.2	approximately 1	approximately 95	approximately 90	3/4	3/4	1/4	2/4	1.00 ± 0.40;	5.75 ± 2.01	1.72 ± 0.41 mm				
N-acetyl-GAQFSKTAA (Ac-GAQFSKTAA; listed as Homo sapiens) [BIO-10901]			approximately 1.75			approximately 2.7	approximately 60	approximately 35								increased migration index numbers	decreased migrated cell numbers		
N-myristoyl-AKGE (Myristoyl-AKGE; listed as Homo sapiens) [BIO-91200]			approximately 1.7	approximately 55	approximately 2.1	approximately 2.4	approximately 65	approximately 40								increased migration index numbers	decreased migrated cell numbers	significantly reduced cell numbers	
N-myristoyl-GAQFSKTAAK (Myristoyl-GAQFSKTAAK; listed as Homo sapiens) [BIO-11000]	approximately 70	approximately 1.5		approximately 50	approximately 2.3											increased migration index numbers	decreased migrated cell numbers		
N-myristoyl-GAQFSKTAAK-NH2 (Myristoyl-GAQFSKTAAK-NH2; SMILES CCCCCCCCCCCCCC(=O)NCC(=O)N[C@@H](C)C(=O)N[C@@H](CCC(N)=O)C(=O)N[C@@H](Cc1ccccc1)C(=O)N[C@@H](CO)C(=O)N[C@@H](CCCCN)C(=O)N[C@H](C(=O)N[C@@H](C)C(=O)N[C@@H](C)C(=O)N[C@@H](CCCCN)C(N)=O)[C@@H](C)O) [BIO-11002]			approximately 2.7			approximately 3.8	approximately 50	approximately 25								increased migration index numbers	decreased migrated cell numbers	significantly reduced cell numbers	
N-myristoyl-GAQFSKTAAKGEAAAERPGEAAVA (Myristoyl-GAQFSKTAAKGEAAAERPGEAAVA; listed as Homo sapiens) [MANS peptide]	approximately 45	approximately 2.5	approximately 2.5	approximately 35	approximately 3.5	approximately 4.3	approximately 40	approximately 20	0/4	0/4	0/4	0/4	0; 0	0; 0	1.48 ± 0.54 mm	increased migration index numbers	decreased migrated cell numbers		animals with few focal tumor nodules (A549 cells; +3 Day treatment group): Few focal tumor nodules in 7/8; distant metastasis (A549 cells; +3 Day treatment group): No distant metastasis; No. of metastatic nodules in lungs Mean ± SEM (A549 cells; +3 Day treatment group): 13 ± 4; animals with few focal tumor nodules (A549 cells; −1 Day treatment group): Few focal tumor nodules in 4/8; distant metastasis (A549 cells; −1 Day treatment group): No distant metastasis; No. of metastatic nodules in lungs Mean ± SEM (A549 cells; −1 Day treatment group): 22 ± 7
